Patent US5196510A, “Molecular recognition units” (Cytogen Corporation, priority 1990, dated 1993)
Like-named read-outs stand apart in the source and are kept apart here. Residues, ends and D or L forms follow the SMILES beside them. No end group written: not given here.

Tests used:
[1] = system: thrombus induced in the jugular vein; assay: Rabbit thrombus model biodistribution and gamma camera imaging; type: in vivo; details: for localization to / uptake in the clot in gamma camera images (in words): thrombus in left jugular vein, Tc-99m labeled peptide (FIGS. 3-5)
Description: Two kg or larger white New Zealand rabbits were anesthetised and a thrombus induced in the jugular vein as follows: the jugular vein was surgically exposed, side branches tied off and a segment of about 1 inch in length was clamped off. A silk thread was introduced through the segment with both ends external. Ten units of bovine thrombin in Tris-buffered saline (TBS) pH 7.5 were added by syringe. After 10 minutes, the clamp was removed and the wound closed. After 1 hour, approximately 50 μg of a MRU conjugate which is a fusion peptide labeled with Tc-99m as described in Section 8.1, supra, was injected via the contralateral ear vein. I-125 labeled fibrinogen was subsequently injected as a control in order to assess normal blood clearance and clot localization. […] The animals were then sacrificed and the amount of Tc-99m and I-125 in various organs was assessed. A Tc-99m labeled nonspecific peptide analogue containing the RYYD sequence served as a control.

[2] = biological target: T1, activated platelet fibrinogen receptor (Homo sapiens, UniProt P05106+P08514); assay: Inhibition of binding of 125-I PAC-1 antibody to activated platelets; details: inhibition of 125-I PAC-1 binding to platelets activated with PMA or ADP, 37 degrees C, 1 hr; read-out: IC-50 (μM) Binding
T1 construct: Platelets were isolated by placing 7 ml of platelet-rich-plasma onto a 50 ml column of Sepharose 2-B; endogenous in cells
T1 sequence (P08514 32-887 limits assumed): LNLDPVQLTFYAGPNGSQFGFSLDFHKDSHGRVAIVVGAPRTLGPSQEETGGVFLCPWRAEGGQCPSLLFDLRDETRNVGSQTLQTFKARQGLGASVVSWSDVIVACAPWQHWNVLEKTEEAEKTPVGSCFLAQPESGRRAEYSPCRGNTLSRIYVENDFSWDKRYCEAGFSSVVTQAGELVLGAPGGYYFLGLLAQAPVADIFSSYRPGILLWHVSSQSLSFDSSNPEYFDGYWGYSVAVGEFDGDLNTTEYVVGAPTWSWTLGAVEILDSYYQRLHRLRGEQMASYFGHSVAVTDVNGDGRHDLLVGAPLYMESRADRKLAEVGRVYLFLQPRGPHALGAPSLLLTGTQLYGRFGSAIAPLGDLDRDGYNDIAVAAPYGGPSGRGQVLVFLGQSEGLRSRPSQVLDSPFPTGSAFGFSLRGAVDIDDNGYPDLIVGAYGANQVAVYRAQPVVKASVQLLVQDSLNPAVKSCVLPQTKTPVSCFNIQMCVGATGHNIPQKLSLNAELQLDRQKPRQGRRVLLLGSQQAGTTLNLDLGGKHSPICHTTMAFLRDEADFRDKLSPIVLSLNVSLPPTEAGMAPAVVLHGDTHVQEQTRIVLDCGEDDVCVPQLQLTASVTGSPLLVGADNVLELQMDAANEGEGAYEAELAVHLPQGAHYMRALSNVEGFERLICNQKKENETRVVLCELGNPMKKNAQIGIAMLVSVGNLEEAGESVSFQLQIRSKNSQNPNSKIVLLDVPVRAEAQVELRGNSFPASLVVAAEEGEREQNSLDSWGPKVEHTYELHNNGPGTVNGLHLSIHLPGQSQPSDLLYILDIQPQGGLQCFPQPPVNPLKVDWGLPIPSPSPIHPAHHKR
T1 sequence (P08514 891-1039 partner limits assumed): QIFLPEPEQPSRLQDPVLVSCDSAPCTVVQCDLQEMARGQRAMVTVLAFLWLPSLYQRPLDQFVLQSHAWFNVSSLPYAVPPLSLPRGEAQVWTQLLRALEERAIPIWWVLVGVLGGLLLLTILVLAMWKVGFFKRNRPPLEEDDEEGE
T1 sequence (P05106 27-788): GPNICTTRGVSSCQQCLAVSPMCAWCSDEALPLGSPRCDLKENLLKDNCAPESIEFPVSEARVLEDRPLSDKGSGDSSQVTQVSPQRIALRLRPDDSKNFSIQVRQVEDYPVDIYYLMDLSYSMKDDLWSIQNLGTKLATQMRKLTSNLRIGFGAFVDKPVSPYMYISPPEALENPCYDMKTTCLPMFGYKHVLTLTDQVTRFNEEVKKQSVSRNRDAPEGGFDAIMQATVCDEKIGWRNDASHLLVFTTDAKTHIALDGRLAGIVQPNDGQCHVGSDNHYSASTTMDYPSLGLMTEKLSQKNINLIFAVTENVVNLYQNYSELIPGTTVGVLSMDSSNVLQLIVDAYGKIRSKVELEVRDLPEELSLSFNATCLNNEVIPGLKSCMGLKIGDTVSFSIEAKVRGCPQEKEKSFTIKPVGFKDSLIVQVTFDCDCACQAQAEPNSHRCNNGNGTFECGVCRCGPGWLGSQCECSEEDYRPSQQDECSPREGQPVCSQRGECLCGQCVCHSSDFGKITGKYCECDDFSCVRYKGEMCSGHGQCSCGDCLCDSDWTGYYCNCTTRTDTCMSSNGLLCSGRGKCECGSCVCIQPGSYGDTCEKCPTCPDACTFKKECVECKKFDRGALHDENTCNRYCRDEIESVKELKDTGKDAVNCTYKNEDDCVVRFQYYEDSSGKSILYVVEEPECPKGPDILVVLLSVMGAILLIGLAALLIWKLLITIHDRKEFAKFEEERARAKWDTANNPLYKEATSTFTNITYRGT
Description: The ability of the fusion peptides and of peptides comprising the binding domain of the peptides, specific for the activated platelet fibrinogen receptor, to inhibit the binding of PAC-1 antibody was assessed as follows:
Platelets were isolated by placing 7 ml of platelet-rich-plasma onto a 50 ml column of Sepharose 2-B equilibrated in Walshes 1% BSA buffer (1.0 g NaCl, 0.2 g KCl, 0.2 g MgCl2, 0.45 g NaH 0.9 g HEPES, 1.0 g BSA and 1.0 g dextrose in sufficient water to make exactly 1 liter), pH 7.45. The cloudiest tubes were pooled to obtain 14 ml of platelets (approximately 300,000/μl). The peptide in Walshes 1% BSA buffer and 20,000 CpM of 125-I-pAC 1 (5 μCi/μg) was added to one ml of this in a microfuge tube. Platelets were next activated with 0.1 μM phorbol myristate acetate or 10 μM ADP at 37 degrees C. After 1 hr, platelets were pelleted at top speed in a horizontal microfuge, washed gently, and the tube bottom removed with dog nail clippers and it, supernatant and wash were counted in a […]. […] Varied levels of peptide were examined and IC-50 was determined from a graph of % inhibition versus peptide concentration.

[3] = type: in vitro ADME, human; details: 37° C
Description: A representative peptide designated "Pac-2" of the sequence: […] was labeled with 125-Iodine via standard techniques (Iodobead) (see Markwell, 1982, Anal. Biochem. 125: 427-32). Stability of the labeled peptide, having either an unblocked or blocked amino terminal end, to proteolytic enzymes in plasma was assayed as follows: Labeled peptides were incubated in fresh citrated human platelet-poor plasma in sealed tubes at 37° C. Aliguots were removed at various times and assayed using reverse phase HPLC. Degradation was calculated by loss of the original radioactive peak on a reverse phase HPLC C-6 column using 0-60% acetonitrile in 20 mM Na phosphate, pH, 6.0. Inhibitors of proteolytic enzymes in plasma were used to identify responsible enzyme classes and included: EDTA (metalloenzymes), benzamidine (serine endoproteases), bestatin (aminopeptidases) and leupeptin ([…]).

platelet aggregation = platelet aggregation (Homo sapiens, UniProt P05106+P08514); assay: Inhibition of platelet aggregation (Payton Aggregometer, ADP); type: cell-based
platelet aggregation, sequence (P08514 32-1039): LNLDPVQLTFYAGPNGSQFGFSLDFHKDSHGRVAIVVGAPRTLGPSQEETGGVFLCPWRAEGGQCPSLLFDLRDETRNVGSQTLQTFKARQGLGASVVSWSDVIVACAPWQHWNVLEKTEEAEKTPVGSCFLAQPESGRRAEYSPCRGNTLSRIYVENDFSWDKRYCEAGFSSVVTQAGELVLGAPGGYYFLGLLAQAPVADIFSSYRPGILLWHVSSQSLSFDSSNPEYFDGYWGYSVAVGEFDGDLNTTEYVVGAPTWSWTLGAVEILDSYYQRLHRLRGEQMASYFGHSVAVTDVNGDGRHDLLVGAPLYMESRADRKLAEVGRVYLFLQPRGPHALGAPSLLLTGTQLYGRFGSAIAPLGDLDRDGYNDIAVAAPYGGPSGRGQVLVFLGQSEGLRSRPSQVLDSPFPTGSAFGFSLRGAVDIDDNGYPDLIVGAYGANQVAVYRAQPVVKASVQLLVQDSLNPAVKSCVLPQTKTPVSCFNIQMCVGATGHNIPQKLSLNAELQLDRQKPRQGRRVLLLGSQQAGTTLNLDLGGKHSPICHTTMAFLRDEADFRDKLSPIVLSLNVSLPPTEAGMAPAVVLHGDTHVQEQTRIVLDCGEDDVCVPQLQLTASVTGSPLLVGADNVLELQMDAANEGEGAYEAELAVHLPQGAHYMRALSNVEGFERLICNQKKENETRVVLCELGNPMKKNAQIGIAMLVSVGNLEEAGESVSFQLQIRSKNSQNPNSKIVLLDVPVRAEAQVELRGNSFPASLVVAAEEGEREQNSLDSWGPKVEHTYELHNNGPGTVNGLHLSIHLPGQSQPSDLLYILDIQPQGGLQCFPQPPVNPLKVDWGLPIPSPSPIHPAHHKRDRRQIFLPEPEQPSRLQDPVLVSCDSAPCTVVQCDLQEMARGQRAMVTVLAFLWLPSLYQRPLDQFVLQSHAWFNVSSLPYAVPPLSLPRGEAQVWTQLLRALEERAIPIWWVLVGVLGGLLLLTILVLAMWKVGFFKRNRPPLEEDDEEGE
platelet aggregation, sequence (P05106 27-788): as the sequence (P05106 27-788) above
Description: The ability of the fusion peptides and of peptides comprising the binding domain of the fusion peptides to inhibit platelet aggregation was assessed as follows:
[…], human plasma was prepared by centrifugation of citrated human plasma at 900 rpm, Sorvall Rc-3, for 20 minutes at room temperature. 0.5 mL of the platelet solution was placed in the cuvette of a Payton Aggregometer, followed by 50 μL of a solution containing various concentrations, up to 200 μM, of the peptide being assayed. After 1 minute, 5 μL of 10 mM ADP in water was added. The aggregation rate was assessed by a change in the slope of the absorbance curve.

## CC(=O)N[C@@H](CO)C(=O)N[C@@H](Cc1ccc(O)cc1)C(=O)NCC(=O)N[C@@H](CCCNC(=N)N)C(=O)NCC(=O)N[C@@H](CC(=O)O)C(=O)N[C@H](C(=O)N[C@@H](CCCNC(=N)N)C(=O)NCC(=O)N[C@@H](CC(=O)O)C(=O)N[C@@H](Cc1ccccc1)C(=O)N[C@@H](CCCCN)C(=O)N[C@@H](CS)C(=O)N[C@H](C(=O)N[C@@H](CS)C(=O)N[C@@H](CS)C(=O)N[C@@H](C)C(N)=O)[C@@H](C)O)C(C)C [PAC-8] (Ac-SYGRGDVRGDFKCTCCA-NH2)
[1]; gamma camera
  time after injection at which the clot is imaged: ≤ 18 min
[1]; gamma camera (FIG. 3D)
  persistence of the clot image: ≥ 4 h
[1]
  localization to / uptake in the clot in gamma camera images (in words): localizes to and images the clot

## CC(=O)N[C@@H](CCCCN)C(=O)N[C@@H](CS)C(=O)N[C@H](C(=O)N[C@@H](CS)C(=O)N[C@@H](CS)C(=O)N[C@@H](C)C(=O)N1CCC[C@H]1C(=O)N[C@@H](CO)C(=O)N[C@@H](Cc1ccc(O)cc1)C(=O)N[C@@H](Cc1ccc(O)cc1)C(=O)N[C@@H](CCCNC(=N)N)C(=O)NCC(=O)N[C@@H](CC(=O)O)C(=O)NCC(=O)N[C@@H](C)C(=O)N1CCC[C@H]1C(=O)N[C@@H](CO)C(=O)N[C@@H](Cc1ccc(O)cc1)C(=O)N[C@@H](Cc1ccc(O)cc1)C(=O)N[C@@H](CCCNC(=N)N)C(=O)NCC(=O)N[C@@H](CC(=O)O)C(=O)NCC(=O)N[C@@H](C)C(=O)N1CCC[C@H]1C(=O)N[C@@H](CO)C(=O)N[C@@H](Cc1ccc(O)cc1)C(=O)N[C@@H](Cc1ccc(O)cc1)C(=O)N[C@@H](CCCNC(=N)N)C(=O)NCC(=O)N[C@@H](CC(=O)O)C(=O)N[C@@H](C)C(N)=O)[C@@H](C)O [PAC-15] (Ac-KCTCCAPSYYRGDGAPSYYRGDGAPSYYRGDA-NH2)
[1]
  localization to / uptake in the clot in gamma camera images (in words): clearly localize and permit imaging of the clot

## CC(=O)N1CCC[C@H]1C(=O)N[C@@H](CO)C(=O)N[C@@H](Cc1ccc(O)cc1)C(=O)N[C@@H](Cc1ccc(O)cc1)C(=O)N[C@@H](CCCNC(=N)N)C(=O)NCC(=O)N[C@@H](CC(=O)O)C(=O)NCC(=O)N[C@@H](C)C(=O)N1CCC[C@H]1C(=O)N[C@@H](CO)C(=O)N[C@@H](Cc1ccc(O)cc1)C(=O)N[C@@H](Cc1ccc(O)cc1)C(=O)N[C@@H](CCCNC(=N)N)C(=O)NCC(=O)N[C@@H](CC(=O)O)C(=O)NCC(=O)N[C@@H](C)C(=O)N1CCC[C@H]1C(=O)N[C@@H](CO)C(=O)N[C@@H](Cc1ccc(O)cc1)C(=O)N[C@@H](Cc1ccc(O)cc1)C(=O)N[C@@H](CCCNC(=N)N)C(=O)NCC(=O)N[C@@H](CC(=O)O)C(=O)N[C@@H](C)C(=O)N[C@@H](CCCCN)C(=O)N[C@@H](CS)C(=O)N[C@H](C(=O)N[C@@H](CS)C(=O)N[C@@H](CS)C(=O)N[C@@H](C)C(N)=O)[C@@H](C)O [PAC-16] (Ac-PSYYRGDGAPSYYRGDGAPSYYRGDAKCTCCA-NH2)
[1]
  localization to / uptake in the clot in gamma camera images (in words): clearly localize and permit imaging of the clot

## ARRSPSYYRGDAGPYYAMDY
[2]
  IC50: 10 µM

## ARRSPSYYRYDAGPYYAMDY
[2]
  IC50: 90 µM

## acARRSPSYYRGDAGPYYAMDYKCTCCA-a [PAC-2]
[3]; inhibitor 1 mM Bestatin, human platelet-poor plasma
  Half-Life: 8.5 min
[3]; no inhibitor, 125-I labeled peptide in citrated human platelet-poor plasma
  Half-Life: 2.1 min

## acARRSPSYYRYYDAGPYYAMDYKCTCCA-a [PAC-3]
Platelet aggregation
  inhibition of platelet aggregation and/or PAC-1 binding (in words): lack of platelet inhibition
[1]
  localization to / uptake in the clot in gamma camera images (in words): no uptake in the region of the clot
